From patent publication US7943770B2, “Fused quinoline derivative and use thereof” (Takeda Pharmaceutical Company Limited, priority 2004, dated 2011)

The molecules below were run against T1, hNK2 receptor (Homo sapiens, UniProt P21452) (assay: Radio-ligand ([125I]-NKA) receptor binding inhibitory activity using membrane fraction of hNK2 receptor-expressing CHO cell). Conditions: membrane fraction of hNK2 receptor-expressing CHO cells, 25° C., 30 min.
T1 construct: host or cells: CHO cells
T1 sequence (P21452 1-398): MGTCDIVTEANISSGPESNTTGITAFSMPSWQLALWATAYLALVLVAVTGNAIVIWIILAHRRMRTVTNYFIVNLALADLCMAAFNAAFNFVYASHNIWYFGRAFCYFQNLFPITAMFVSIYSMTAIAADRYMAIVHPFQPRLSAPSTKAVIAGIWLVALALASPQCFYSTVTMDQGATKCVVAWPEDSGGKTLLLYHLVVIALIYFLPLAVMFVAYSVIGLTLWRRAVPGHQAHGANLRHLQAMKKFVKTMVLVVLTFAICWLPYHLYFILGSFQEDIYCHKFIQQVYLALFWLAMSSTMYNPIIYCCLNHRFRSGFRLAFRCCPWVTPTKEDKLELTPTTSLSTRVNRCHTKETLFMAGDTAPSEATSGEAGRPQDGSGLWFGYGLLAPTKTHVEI
Method in brief: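 Inhibition of [125I]-NKA binding ([…] solution added) measured after 30 min at 25 °C using hNK2-CHO membrane fraction (20 μg/mL suspension) in pH 7.4 Tris buffer containing MnCl2, BSA and protease inhibitors. Filter-bound counts read; activity calculated as fraction of specific binding, non-specific defined with unlabeled NKA.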

Row | IC50 | SMILES
1 | < 10 nM | COc1ccc(CNC(=O)N[C@@H]2CCCC[C@@H]2C(=O)N2CC[C@@H]3[C@H](c4ccccc4)Nc4ccccc4[C@@H]32)cc1 [Example 144, N-(4-Methoxybenzyl)-N′-((1R,2S)-2-{[(3aR,4R,9bR)-4-phenyl-2,3,3a,4,5,9b-hexahydro-1H-pyrrolo[3,2-c]quinolin-1-yl]carbonyl}cyclohexyl)urea]
2 | < 10 nM | O=C(NCc1ccc(F)cc1)N[C@@H]1CCCC[C@@H]1C(=O)N1CC[C@@H]2[C@H](c3ccccc3)Nc3ccccc3[C@@H]21 [Example 145, N-(4-Fluorobenzyl)-N′-((1R,2S)-2-{[(3aR,4R,9bR)-4-phenyl-2,3,3a,4,5,9b-hexahydro-1H-pyrrolo[3,2-c]quinolin-1-yl]carbonyl}cyclohexyl)urea]
3 | < 10 nM | O=C(NCCc1ccccc1)N[C@@H]1CCCC[C@@H]1C(=O)N1CC[C@@H]2[C@H](c3ccccc3)Nc3ccccc3[C@@H]21 [Example 146, N-(2-Phenylethyl)-N′-((1R,2S)-2-{[(3aR,4R,9bR)-4-phenyl-2,3,3a,4,5,9b-hexahydro-1H-pyrrolo[3,2-c]quinolin-1-yl]carbonyl}cyclohexyl)urea]
4 | < 10 nM | N#Cc1ccc(NC(=O)N[C@@H]2CCCC[C@@H]2C(=O)N2CC[C@@H]3[C@H](c4ccccc4)Nc4ccccc4[C@@H]32)cc1 [Example 147, N-(4-Cyanophenyl)-N′-((1R,2S)-2-{[(3aR,4R,9bR)-4-phenyl-2,3,3a,4,5,9b-hexahydro-1H-pyrrolo[3,2-c]quinolin-1-yl]carbonyl}cyclohexyl)urea]
5 | < 1 nM | O=C(Nc1ccc2c(c1)OCO2)N[C@@H]1CCCC[C@@H]1C(=O)N1CC[C@@H]2[C@H](c3ccccc3)Nc3ccccc3[C@@H]21 [Example 148, N-1,3-Benzodioxol-5-yl-N′-((1R,2S)-2-{[(3aR,4R,9bR)-4-phenyl-2,3,3a,4,5,9b-hexahydro-1H-pyrrolo[3,2-c]quinolin-1-yl]carbonyl}cyclohexyl)urea]
6 | < 10 nM | O=C(NC1CCCCC1)N[C@@H]1CCCC[C@@H]1C(=O)N1CC[C@@H]2[C@H](c3ccccc3)Nc3ccccc3[C@@H]21 [Example 149, N-Cyclohexyl-N′-((1R,2S)-2-{[(3aR,4R,9bR)-4-phenyl-2,3,3a,4,5,9b-hexahydro-1H-pyrrolo[3,2-c]quinolin-1-yl]carbonyl}cyclohexyl)urea]
7 | < 10 nM | CC(C)c1ccc(NC(=O)N[C@@H]2CCCC[C@@H]2C(=O)N2CC[C@@H]3[C@H](c4ccccc4)Nc4ccccc4[C@@H]32)cc1 [Example 150, N-(4-Isopropylphenyl)-N′-((1R,2S)-2-{[(3aR,4R,9bR)-4-phenyl-2,3,3a,4,5,9b-hexahydro-1H-pyrrolo[3,2-c]quinolin-1-yl]carbonyl}cyclohexyl)urea]
8 | < 10 nM | CCNC(=O)N[C@@H]1CCCC[C@@H]1C(=O)N1CC[C@@H]2[C@H](c3ccccc3)Nc3ccccc3[C@@H]21 [Example 151, N-Ethyl-N′-((1R,2S)-2-{[(3aR,4R,9bR)-4-phenyl-2,3,3a,4,5,9b-hexahydro-1H-pyrrolo[3,2-c]quinolin-1-yl]carbonyl}cyclohexyl)urea]
9 | < 10 nM | CC(C)NC(=O)N[C@@H]1CCCC[C@@H]1C(=O)N1CC[C@@H]2[C@H](c3ccccc3)Nc3ccccc3[C@@H]21 [Example 152, N-Isopropyl-N′-((1R,2S)-2-{[(3aR,4R,9bR)-4-phenyl-2,3,3a,4,5,9b-hexahydro-1H-pyrrolo[3,2-c]quinolin-1-yl]carbonyl}cyclohexyl)urea]
10 | < 1 nM | CCCCNC(=O)N[C@@H]1CCCC[C@@H]1C(=O)N1CC[C@@H]2[C@H](c3ccccc3)Nc3ccccc3[C@@H]21 [Example 153, N-Butyl-N′-((1R,2S)-2-{[(3aR,4R,9bR)-4-phenyl-2,3,3a,4,5,9b-hexahydro-1H-pyrrolo[3,2-c]quinolin-1-yl]carbonyl}cyclohexyl)urea]
11 | < 1 nM | CCCCCCNC(=O)N[C@@H]1CCCC[C@@H]1C(=O)N1CC[C@@H]2[C@H](c3ccccc3)Nc3ccccc3[C@@H]21 [Example 154, N-Hexyl-N′-((1R,2S)-2-{[(3aR,4R,9bR)-4-phenyl-2,3,3a,4,5,9b-hexahydro-1H-pyrrolo[3,2-c]quinolin-1-yl]carbonyl}cyclohexyl)urea]
12 | < 10 nM | CCOC(=O)CCNC(=O)N[C@@H]1CCCC[C@@H]1C(=O)N1CC[C@@H]2[C@H](c3ccccc3)Nc3ccccc3[C@@H]21 [Example 155, Ethyl N-{[((1R,2S)-2-{[(3aR,4R,9bR)-4-phenyl-2,3,3a,4,5,9b-hexahydro-1H-pyrrolo[3,2-c]quinolin-1-yl]carbonyl}cyclohexyl)amino]carbonyl}-beta-alaninate]
13 | < 10 nM | O=C(NCCCO)N[C@@H]1CCCC[C@@H]1C(=O)N1CC[C@@H]2[C@H](c3ccccc3)Nc3ccccc3[C@@H]21 [Example 156, N-(3-Hydroxypropyl)-N′-((1R,2S)-2-{[(3aR,4R,9bR)-4-phenyl-2,3,3a,4,5,9b-hexahydro-1H-pyrrolo[3,2-c]quinolin-1-yl]carbonyl}cyclohexyl)urea]
14 | < 10 nM | CCOC(=O)c1ccc(NC(=O)N[C@@H]2CCCC[C@@H]2C(=O)N2CC[C@@H]3[C@H](c4ccccc4)Nc4ccccc4[C@@H]32)cc1 [Example 159, Ethyl 4-({[((1R,25)-2-{[(3aR,4R,9bR)-4-phenyl-2,3,3a,4,5,9b-hexahydro-1H-pyrrolo[3,2-c]quinolin-1-yl]carbonyl}cyclohexyl)amino]carbonyl}amino)benzoate]
15 | < 1 nM | NC(=O)c1ccc(NC(=O)N[C@@H]2CCCC[C@@H]2C(=O)N2CC[C@@H]3[C@H](c4ccccc4)Nc4ccccc4[C@@H]32)cc1 [Example 160, 4-({[((1R,25)-2-{[(3aR,4R,9bR)-4-Phenyl-2,3,3a,4,5,9b-hexahydro-1H-pyrrolo[3,2-c]quinolin-1-yl]carbonyl}cyclohexyl)amino]carbonyl}amino)benzamide]
16 | < 10 nM | COCCCNC(=O)N[C@@H]1CCCC[C@@H]1C(=O)N1CC[C@@H]2[C@H](c3ccccc3)Nc3ccccc3[C@@H]21 [Example 161, N-(3-Methoxypropyl)-N′-((1R,2S)-2-{[(3aR,4R,9bR)-4-phenyl-2,3,3a,4,5,9b-hexahydro-1H-pyrrolo[3,2-c]quinolin-1-yl]carbonyl}cyclohexyl)urea]
17 | < 10 nM | CCOCCNC(=O)N[C@@H]1CCCC[C@@H]1C(=O)N1CC[C@@H]2[C@H](c3ccccc3)Nc3ccccc3[C@@H]21 [Example 162, N-(2-Ethoxyethyl)-N′-((1R,2S)-2-{[(3aR,4R,9bR)-4-phenyl-2,3,3a,4,5,9b-hexahydro-1H-pyrrolo[3,2-c]quinolin-1-yl]carbonyl}cyclohexyl)urea]
18 | < 1 nM | O=C(NCCc1ccccn1)N[C@@H]1CCCC[C@@H]1C(=O)N1CC[C@@H]2[C@H](c3ccccc3)Nc3ccccc3[C@@H]21 [Example 164, N-((1R,2S)-2-{[(3aR,4R,9bR)-4-Phenyl-2,3,3a,4,5,9b-hexahydro-1H-pyrrolo[3,2-c]quinolin-1-yl]carbonyl}cyclohexyl)-N′-(2-pyridin-2-ylethyl)urea]
19 | < 1 nM | CC(C)CCNC(=O)N[C@@H]1CCCC[C@@H]1C(=O)N1CC[C@@H]2[C@H](c3ccccc3)Nc3ccccc3[C@@H]21 [Example 166, N-(3-Methylbutyl)-N′-((1R,2S)-2-{[(3aR,4R,9bR)-4-phenyl-2,3,3a,4,5,9b-hexahydro-1H-pyrrolo[3,2-c]quinolin-1-yl]carbonyl}cyclohexyl)urea]
20 | < 10 nM | O=C(NCCCN1CCCC1=O)N[C@@H]1CCCC[C@@H]1C(=O)N1CC[C@@H]2[C@H](c3ccccc3)Nc3ccccc3[C@@H]21 [Example 168, N-[3-(2-oxopyrrolidin-1-yl)propyl]-N′-((1R,2S)-2-{[(3aR,4R,9bR)-4-phenyl-2,3,3a,4,5,9b-hexahydro-1H-pyrrolo[3,2-c]quinolin-1-yl]carbonyl}cyclohexyl)urea]
21 | < 10 nM | O=C(Nc1ccccn1)N[C@@H]1CCCC[C@@H]1C(=O)N1CC[C@@H]2[C@H](c3ccccc3)Nc3ccccc3[C@@H]21 [Example 170, N-((1R,2S)-2-{[(3aR,4R,9bR)-4-Phenyl-2,3,3a,4,5,9b-hexahydro-1H-pyrrolo[3,2-c]quinolin-1-yl]carbonyl}cyclohexyl)-N′-pyridin-2-ylurea]
22 | < 10 nM | O=C(Nc1cccnc1)N[C@@H]1CCCC[C@@H]1C(=O)N1CC[C@@H]2[C@H](c3ccccc3)Nc3ccccc3[C@@H]21 [Example 171, N-((1R,2S)-2-{[(3aR,4R,9bR)-4-Phenyl-2,3,3a,4,5,9b-hexahydro-1H-pyrrolo[3,2-c]quinolin-1-yl]carbonyl}cyclohexyl)-N′-pyridin-3-ylurea]
23 | < 10 nM | O=C(N[C@@H]1CCCC[C@@H]1C(=O)N1CC[C@@H]2[C@H](c3ccccc3)Nc3ccccc3[C@@H]21)N1CCC(c2ccccc2)CC1 [Example 172, 4-Phenyl-N-((1R,2S)-2-{[(3aR,4R,9bR)-4-phenyl-2,3,3a,4,5,9b-hexahydro-1H-pyrrolo[3,2-c]quinolin-1-yl]carbonyl}cyclohexyl)piperidine-1-carboxamide]
24 | < 10 nM | O=C(NCC(F)(F)F)N[C@@H]1CCCC[C@@H]1C(=O)N1CC[C@@H]2[C@H](c3ccccc3)Nc3ccccc3[C@@H]21 [Example 173, N-((1R,2S)-2-{[(3aR,4R,9bR)-4-Phenyl-2,3,3a,4,5,9b-hexahydro-1H-pyrrolo[3,2-c]quinolin-1-yl]carbonyl}cyclohexyl)-N′-(2,2,2-trifluoroethyl)urea]
